Test results: ChEMBL document CHEMBL1134097, “Cyclooxygenase-inhibitory and antioxidant constituents of the aerial parts of Antirhea acutata” (Bioorg Med Chem Lett, 2001); call rule not given here
Each block holds one compound with its values, some of them ahead of it.

How the values were obtained:
[1] = Activity determined by cytochrome c reduction antioxidant assay; format: functional
[2] = Activity determined by 1,1-diphenyl-2-picrylhydrazyl (DPPH) free radical antioxidant assay; format: functional
[3] = biological target: T1, Prostaglandin G/H synthase 1 (Homo sapiens, UniProt P23219); test: Inhibitory concentration against Prostaglandin G/H synthase 1
T1 sequence (P23219 whole entry): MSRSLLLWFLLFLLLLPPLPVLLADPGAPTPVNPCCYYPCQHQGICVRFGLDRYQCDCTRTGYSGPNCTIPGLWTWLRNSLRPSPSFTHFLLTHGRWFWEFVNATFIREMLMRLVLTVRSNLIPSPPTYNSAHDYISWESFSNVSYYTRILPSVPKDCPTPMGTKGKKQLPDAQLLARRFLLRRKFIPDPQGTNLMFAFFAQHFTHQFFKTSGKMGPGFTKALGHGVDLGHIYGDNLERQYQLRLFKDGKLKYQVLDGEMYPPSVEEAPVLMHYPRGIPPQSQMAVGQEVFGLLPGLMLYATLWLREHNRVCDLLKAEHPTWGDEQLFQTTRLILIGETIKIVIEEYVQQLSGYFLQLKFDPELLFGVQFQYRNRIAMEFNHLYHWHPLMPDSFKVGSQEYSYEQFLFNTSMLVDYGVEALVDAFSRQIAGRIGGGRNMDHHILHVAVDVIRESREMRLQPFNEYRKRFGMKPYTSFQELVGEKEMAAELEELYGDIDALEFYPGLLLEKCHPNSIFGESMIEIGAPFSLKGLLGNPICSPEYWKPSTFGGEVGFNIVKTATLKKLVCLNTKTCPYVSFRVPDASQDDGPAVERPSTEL

[4] = biological target: T2, Prostaglandin G/H synthase 2 (Homo sapiens, UniProt P35354); test: Inhibitory concentration against Prostaglandin G/H synthase 2
T2 sequence (P35354 whole entry): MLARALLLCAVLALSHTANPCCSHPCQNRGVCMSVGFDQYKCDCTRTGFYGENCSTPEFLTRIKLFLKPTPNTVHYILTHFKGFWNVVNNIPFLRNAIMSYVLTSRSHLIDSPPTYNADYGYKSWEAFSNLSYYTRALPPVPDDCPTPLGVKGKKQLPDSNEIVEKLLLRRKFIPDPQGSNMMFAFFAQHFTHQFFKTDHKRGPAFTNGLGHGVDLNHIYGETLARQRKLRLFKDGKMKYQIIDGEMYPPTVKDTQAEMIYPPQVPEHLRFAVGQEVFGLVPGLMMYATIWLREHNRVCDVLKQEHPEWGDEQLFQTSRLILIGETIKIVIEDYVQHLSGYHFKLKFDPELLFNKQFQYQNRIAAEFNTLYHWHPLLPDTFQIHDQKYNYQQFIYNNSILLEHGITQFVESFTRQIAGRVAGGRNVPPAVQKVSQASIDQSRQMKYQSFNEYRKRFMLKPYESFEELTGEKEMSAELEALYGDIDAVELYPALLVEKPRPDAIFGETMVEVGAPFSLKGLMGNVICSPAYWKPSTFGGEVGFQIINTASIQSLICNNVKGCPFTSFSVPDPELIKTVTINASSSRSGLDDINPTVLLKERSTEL

[5] = biological target: T2, Prostaglandin G/H synthase 2; test: Activity against Prostaglandin G/H synthase 2 at > 70 ug/mL; inactive
[6] = biological target: T1, Prostaglandin G/H synthase 1; test: Activity against Prostaglandin G/H synthase 1 at > 70 ug/mL; inactive

IC50 [1]: 16.3 µM | IC50 [2]: 29.1 µM
SMILES: COC(=O)C[C@H](c1ccc(O)c(O)c1)c1c(O)cc(O)c2c1O[C@H](c1ccc(O)c(O)c1)[C@H](O)C2

IC50 [3]: 43.7 µM | IC50 [4]: 4.7 µM
SMILES: C=C[C@@H]1[C@@H](O)C[C@@H]2[C@]3(CC[C@]4(C)[C@@H]([C@H](C)CCC=C(C)C)CC[C@@]24C)C[C@]13CCC(=O)O

IC50 [5]: Not Active | IC50 [6]: Not Active
SMILES: C[C@H](CC[C@H](O)C(C)(C)O)[C@H]1CC[C@@]2(C)[C@@H]3CCC4[C@@]5(CC[C@H](O)[C@@]4(C)C(=O)O)C[C@@]35CC[C@]12C (stereo partly specified)
